Experimental data: patent US10807944B2, “HDAC inhibitor compounds and methods of treatment” (priority 2014, dated 2020)
pIC50: −log10 of the molar value. Like-named read-outs stand apart in the source and are kept apart here. Values belong to the compound of their own block, whether it stands above or below them.

Tests used:
HDAC8 [1] = target: T1, HDAC8 (Homo sapiens (Human), UniProt Q9BY41); conditions: Table 1, literature data; read-out: Inhibitory Potency (IC50) HDAC 8; cited from earlier work
HDAC10 = HDAC10 (Homo sapiens (Human), UniProt Q969S8); conditions: Table 1, literature data; read-out: Inhibitory Potency (IC50) HDAC 10; cited from earlier work
HDAC4 = HDAC4 (Homo sapiens (Human), UniProt P56524); conditions: Table 1, literature data; read-out: Inhibitory Potency (IC50) HDAC 4; cited from earlier work
HDAC5 = HDAC5 (Homo sapiens (Human), UniProt Q9UQL6); conditions: Table 1, literature data; read-out: Inhibitory Potency (IC50) HDAC 5; cited from earlier work
HDAC7 = HDAC7 (Homo sapiens (Human), UniProt Q8WUI4); conditions: Table 1, literature data; read-out: Inhibitory Potency (IC50) HDAC 7; cited from earlier work
HDAC9 = HDAC9 (Homo sapiens (Human), UniProt Q9UKV0); conditions: Table 1, literature data; read-out: Inhibitory Potency (IC50) HDAC 9; cited from earlier work
HDAC1 [2] = target: T2, HDAC1 (Homo sapiens (Human), UniProt Q13547); assay: HDAC-1 inhibition potency, luminescence readout; format: biochemical; conditions: Table 6, luminescence readout
Description: (§1) Compounds were examined for their HDAC inhibitory activity and their effect on cancer cell viability (MDA-MB-231 cells).

HDAC2 [3] = target: T3, HDAC2 (Homo sapiens (Human), UniProt Q92769); assay: HDAC-2 inhibition potency, luminescence readout; format: biochemical; conditions: Table 6, luminescence readout
Description: as §1

HDAC3 [4] = target: T4, HDAC3 (Homo sapiens (Human), UniProt O15379); assay: HDAC-3 inhibition potency, luminescence readout; format: biochemical; conditions: Table 6, luminescence readout
MDA-MB-231 cells = assay: Cancer cell viability (CellTiter-Glo); format: cell-based; conditions: for pIC50: Homo sapiens, MDA-MB-231, read-out: Cancer cell (MDA-MB-231) killing IC50
HDAC1 [5] = target: T2, HDAC1; assay: HDAC1 in vitro inhibition, dose response; format: biochemical; conditions: Table 2; read-out: HDAC 1 IC50
HDAC2 [6] = target: T3, HDAC2; assay: HDAC2 in vitro inhibition, dose response; format: biochemical; conditions: Table 2; read-out: HDAC 2 IC50
HDAC3 [7] = target: T4, HDAC3; assay: HDAC3 in vitro inhibition, dose response; format: biochemical; conditions: Table 2; read-out: HDAC 3 IC50
HDAC8 [8] = target: T1, HDAC8; assay: HDAC8 in vitro inhibition, dose response; format: biochemical; conditions: Table 2; read-out: HDAC 8 IC50
HDAC6 = HDAC6 (Homo sapiens (Human), UniProt Q9UBN7); assay: HDAC6 in vitro inhibition, dose response; format: biochemical; conditions: Table 2; read-out: HDAC 6 IC50
HCT116 cells [9] = assay: Histone acetylation by Western blotting; format: cell-based; conditions: HCT116, 1 h exposure; TSA 0.2 μM, others 2 μM (FIG. 1A)
HCT116 cells [10] = assay: H3K18ac after 6 h pulse treatment and drug washout; format: cell-based; conditions: for time at which histone acetylation (H3K18ac) was induced: HCT116, 6 h pulse exposure; for time up to which induced acetylation was maintained: HCT116, 6 h pulse then drug washout, time after drug addition
in vivo = conditions: rat
[11] = rat, ref (6); cited from earlier work
[12] = tested on: Ad-MLP-Luc reporter in HCT116 cell line; assay: Ad-MLP-Luc luciferase reporter activation; format: cell-based; conditions: HCT116, dose-dependent
HDAC1 [13] = target: T2, HDAC1; conditions: Table 1, literature data; read-out: Inhibitory Potency (IC50) HDAC 1; cited from earlier work
HDAC1 [14] = target: T2, HDAC1; assay: In vitro HDAC1 inhibition of HTS hits (HDAC I/II-Glo reagents); format: biochemical; conditions: HTS follow-up

T2 sequence (Q13547 whole entry): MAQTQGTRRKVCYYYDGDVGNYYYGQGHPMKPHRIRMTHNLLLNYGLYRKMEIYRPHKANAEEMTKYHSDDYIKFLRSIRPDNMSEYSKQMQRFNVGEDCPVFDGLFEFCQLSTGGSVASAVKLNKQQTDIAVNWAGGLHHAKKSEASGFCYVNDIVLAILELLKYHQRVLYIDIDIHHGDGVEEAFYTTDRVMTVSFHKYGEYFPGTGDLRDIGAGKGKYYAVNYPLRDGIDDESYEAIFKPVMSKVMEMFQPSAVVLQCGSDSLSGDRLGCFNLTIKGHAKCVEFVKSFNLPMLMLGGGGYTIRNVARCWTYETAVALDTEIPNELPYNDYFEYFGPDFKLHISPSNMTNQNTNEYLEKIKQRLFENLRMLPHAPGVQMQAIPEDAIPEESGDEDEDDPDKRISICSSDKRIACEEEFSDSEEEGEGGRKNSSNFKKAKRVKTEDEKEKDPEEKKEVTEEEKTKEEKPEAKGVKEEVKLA
T3 sequence (Q92769 whole entry): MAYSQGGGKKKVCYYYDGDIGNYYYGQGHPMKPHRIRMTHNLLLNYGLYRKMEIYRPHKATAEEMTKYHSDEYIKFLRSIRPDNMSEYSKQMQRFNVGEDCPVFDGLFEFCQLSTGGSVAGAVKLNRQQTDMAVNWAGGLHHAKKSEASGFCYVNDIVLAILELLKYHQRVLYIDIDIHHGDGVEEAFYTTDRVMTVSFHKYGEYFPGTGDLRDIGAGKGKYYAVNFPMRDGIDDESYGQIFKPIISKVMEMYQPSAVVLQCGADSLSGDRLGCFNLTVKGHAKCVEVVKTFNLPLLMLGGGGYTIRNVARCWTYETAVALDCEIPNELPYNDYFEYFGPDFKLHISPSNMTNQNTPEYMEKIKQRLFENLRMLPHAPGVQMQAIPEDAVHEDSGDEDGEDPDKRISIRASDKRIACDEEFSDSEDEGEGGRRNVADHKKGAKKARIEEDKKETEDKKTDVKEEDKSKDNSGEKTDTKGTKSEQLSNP
T4 sequence (O15379 whole entry): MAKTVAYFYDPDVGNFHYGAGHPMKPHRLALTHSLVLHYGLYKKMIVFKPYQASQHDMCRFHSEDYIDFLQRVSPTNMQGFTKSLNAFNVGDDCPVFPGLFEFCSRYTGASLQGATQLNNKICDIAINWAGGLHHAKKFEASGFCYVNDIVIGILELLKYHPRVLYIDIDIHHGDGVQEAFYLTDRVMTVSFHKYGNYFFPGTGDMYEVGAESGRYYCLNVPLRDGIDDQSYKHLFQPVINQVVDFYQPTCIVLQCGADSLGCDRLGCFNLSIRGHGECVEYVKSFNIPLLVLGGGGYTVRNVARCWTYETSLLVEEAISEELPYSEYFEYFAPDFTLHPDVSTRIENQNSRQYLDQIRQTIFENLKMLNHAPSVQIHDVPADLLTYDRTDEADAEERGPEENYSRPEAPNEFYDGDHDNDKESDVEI
T4 sequence (Q9Y618 395-489 partner): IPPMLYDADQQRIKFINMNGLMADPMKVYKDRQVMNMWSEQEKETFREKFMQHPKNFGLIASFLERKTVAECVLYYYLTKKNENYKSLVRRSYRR
Chain of HDAC4 (P56524 whole entry): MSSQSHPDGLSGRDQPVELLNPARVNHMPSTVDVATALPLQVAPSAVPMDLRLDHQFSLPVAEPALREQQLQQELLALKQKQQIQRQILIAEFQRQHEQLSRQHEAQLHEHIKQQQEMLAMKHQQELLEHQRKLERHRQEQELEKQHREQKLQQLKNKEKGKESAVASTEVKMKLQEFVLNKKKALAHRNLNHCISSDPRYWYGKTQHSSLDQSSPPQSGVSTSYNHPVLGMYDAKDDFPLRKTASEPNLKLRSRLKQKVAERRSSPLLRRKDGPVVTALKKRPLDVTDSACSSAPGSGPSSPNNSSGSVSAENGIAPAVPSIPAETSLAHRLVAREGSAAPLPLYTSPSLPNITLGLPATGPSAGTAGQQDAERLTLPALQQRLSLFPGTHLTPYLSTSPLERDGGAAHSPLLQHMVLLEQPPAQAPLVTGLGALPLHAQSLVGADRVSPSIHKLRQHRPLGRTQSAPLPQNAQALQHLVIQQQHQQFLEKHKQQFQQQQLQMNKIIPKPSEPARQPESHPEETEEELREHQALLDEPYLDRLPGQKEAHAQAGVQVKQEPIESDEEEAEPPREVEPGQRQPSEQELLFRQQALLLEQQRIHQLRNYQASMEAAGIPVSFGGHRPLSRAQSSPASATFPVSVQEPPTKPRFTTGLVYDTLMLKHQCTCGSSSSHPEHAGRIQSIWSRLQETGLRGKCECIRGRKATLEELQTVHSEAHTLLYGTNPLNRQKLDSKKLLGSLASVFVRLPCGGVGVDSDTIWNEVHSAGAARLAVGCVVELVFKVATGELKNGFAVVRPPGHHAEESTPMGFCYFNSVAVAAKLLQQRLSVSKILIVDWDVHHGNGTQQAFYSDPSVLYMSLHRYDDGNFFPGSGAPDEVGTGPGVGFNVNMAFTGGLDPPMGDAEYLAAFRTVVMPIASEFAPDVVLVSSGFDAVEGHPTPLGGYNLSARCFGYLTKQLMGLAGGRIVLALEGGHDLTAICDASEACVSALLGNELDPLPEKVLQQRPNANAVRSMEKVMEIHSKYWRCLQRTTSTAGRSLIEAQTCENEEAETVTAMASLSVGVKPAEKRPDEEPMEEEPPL
T1 sequence (Q9BY41 whole entry): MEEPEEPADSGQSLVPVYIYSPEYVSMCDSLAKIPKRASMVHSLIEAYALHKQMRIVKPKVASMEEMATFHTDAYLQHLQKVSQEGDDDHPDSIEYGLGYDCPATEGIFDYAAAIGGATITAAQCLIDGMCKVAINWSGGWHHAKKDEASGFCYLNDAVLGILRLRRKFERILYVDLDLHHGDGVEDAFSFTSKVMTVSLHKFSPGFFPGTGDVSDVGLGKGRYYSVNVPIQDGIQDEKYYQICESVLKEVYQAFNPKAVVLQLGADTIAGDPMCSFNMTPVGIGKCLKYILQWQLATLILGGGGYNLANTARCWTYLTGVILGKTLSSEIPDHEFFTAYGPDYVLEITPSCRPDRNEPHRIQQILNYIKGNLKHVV
Chain of HDAC9 (Q9UKV0 whole entry): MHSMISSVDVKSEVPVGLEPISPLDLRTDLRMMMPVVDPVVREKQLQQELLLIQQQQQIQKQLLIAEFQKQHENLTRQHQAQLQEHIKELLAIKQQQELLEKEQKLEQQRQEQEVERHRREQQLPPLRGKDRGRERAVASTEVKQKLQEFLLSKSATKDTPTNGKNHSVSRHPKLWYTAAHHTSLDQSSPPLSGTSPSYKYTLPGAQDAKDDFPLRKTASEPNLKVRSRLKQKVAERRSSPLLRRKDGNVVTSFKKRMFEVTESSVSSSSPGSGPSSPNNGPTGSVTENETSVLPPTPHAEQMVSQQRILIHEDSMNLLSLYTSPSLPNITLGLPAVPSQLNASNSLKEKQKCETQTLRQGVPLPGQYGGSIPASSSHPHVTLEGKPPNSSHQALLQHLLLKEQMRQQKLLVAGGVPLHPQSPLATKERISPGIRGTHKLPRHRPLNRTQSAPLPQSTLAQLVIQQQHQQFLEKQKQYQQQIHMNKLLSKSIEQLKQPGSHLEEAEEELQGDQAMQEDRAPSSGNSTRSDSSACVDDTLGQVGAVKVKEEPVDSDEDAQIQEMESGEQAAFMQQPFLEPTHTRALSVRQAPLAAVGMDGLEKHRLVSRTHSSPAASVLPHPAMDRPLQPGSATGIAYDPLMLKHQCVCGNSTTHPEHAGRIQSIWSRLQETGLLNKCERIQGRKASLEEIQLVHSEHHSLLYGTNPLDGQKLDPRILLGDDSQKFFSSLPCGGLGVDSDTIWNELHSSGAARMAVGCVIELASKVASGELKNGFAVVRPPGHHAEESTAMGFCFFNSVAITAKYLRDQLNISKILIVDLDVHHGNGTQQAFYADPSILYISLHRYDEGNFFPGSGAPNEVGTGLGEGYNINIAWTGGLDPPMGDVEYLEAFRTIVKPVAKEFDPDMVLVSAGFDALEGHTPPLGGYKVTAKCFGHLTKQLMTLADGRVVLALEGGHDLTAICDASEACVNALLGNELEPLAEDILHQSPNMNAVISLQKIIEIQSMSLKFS
Chain of HDAC10 (Q969S8 whole entry): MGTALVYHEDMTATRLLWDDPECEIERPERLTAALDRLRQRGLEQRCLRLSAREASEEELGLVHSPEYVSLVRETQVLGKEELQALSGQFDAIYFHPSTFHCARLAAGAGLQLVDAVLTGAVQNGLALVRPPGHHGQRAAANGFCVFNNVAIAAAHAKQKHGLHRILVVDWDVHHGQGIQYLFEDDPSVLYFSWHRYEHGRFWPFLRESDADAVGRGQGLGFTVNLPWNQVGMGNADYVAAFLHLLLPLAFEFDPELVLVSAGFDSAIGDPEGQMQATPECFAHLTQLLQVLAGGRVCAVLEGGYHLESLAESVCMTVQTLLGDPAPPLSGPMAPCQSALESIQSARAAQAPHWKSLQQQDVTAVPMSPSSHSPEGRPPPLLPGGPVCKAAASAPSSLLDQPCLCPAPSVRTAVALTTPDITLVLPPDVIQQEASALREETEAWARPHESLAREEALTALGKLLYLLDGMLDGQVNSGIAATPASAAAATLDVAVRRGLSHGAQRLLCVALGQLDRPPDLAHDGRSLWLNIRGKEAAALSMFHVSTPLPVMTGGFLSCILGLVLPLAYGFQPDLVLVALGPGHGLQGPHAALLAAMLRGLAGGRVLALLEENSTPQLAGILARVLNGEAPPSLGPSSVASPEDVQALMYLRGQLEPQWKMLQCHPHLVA

SMILES: CC(=O)Nc1ccc(C(=O)Nc2cc(-c3cccs3)ccc2N)cc1 [Cpd60]
- pIC50 (HDAC8 [1]): < 4.52
- pIC50 (HDAC10): 5.47
- pIC50 (HDAC4): < 4.52
- pIC50 (HDAC5): < 4.52
- pIC50 (HDAC7): < 4.52
- pIC50 (HDAC9): < 4.52

- HDAC inhibition potency (IC50) HDAC1 (HDAC1 [2]): No inhibition
- HDAC inhibition potency (IC50) HDAC2 (HDAC2 [3]): No inhibition
- HDAC inhibition potency (IC50) HDAC3 (HDAC3 [4]): No inhibition
SMILES: CCCCNNC(=O)c1ccccc1-c1ccccc1 [SR-3459]
- pIC50 (MDA-MB-231 cells): < 4.00
- effect on cancer cell viability (MDA-MB-231 cells; MDA-MB-231): does not impair cancer cell viability

SMILES: CCCCNNC(=O)c1ccc(-c2cccc(F)c2F)cc1 [SR-4370, N′-butyl-2′,3′-difluorobiphenyl-4-carbohydrazide]
- pIC50 (HDAC1 [5]): 6.89
- pIC50 (HDAC2 [6]): 6.24
- pIC50 (HDAC3 [7]): 8.22
- pIC50 (HDAC8 [8]): 5.64
- pIC50 (HDAC6): 5.43
- pIC50 (HDAC1 [2]): 6.89
- pIC50 (HDAC2 [3]): 6.24
- pIC50 (HDAC3 [4]): 8.22
- pIC50 (MDA-MB-231 cells): 4.90

SMILES: Nc1ccccc1NC(=O)c1ccc(CNC(=O)OCc2cccnc2)cc1 [MS-275, entinostat]
- accumulation of acetylated histones (HCT116 cells [9]): only slightly induced acetylation at several sites but failed to induce acetylation at most sites
- time at which histone acetylation (H3K18ac) was induced (HCT116 cells [10]): 18 h
- time up to which induced acetylation was maintained (HCT116 cells [10]): at least 48 h
- MTD (in vivo): ~1.5 mg/kg
- MTD [11]: 3.1 mg/kg

SMILES: C/C=C1\NC(=O)[C@H]2CSSCC/C=C/[C@H](CC(=O)N[C@H](C(C)C)C(=O)N2)OC(=O)[C@H](C(C)C)NC1=O [Romidepsin, romidepsin]
- time at which histone acetylation (H3K18ac) was induced (HCT116 cells [10]): quickly induced acetylation
- time up to which induced acetylation was maintained (HCT116 cells [10]): up to 24 h
- Ad-MLP-Luc reporter activity [12]: dramatically increased
- pIC50 (HDAC1 [13]): 8.70
- pIC50 (HDAC4): 7.52

SMILES: O=C(CCCCCCC(=O)Nc1ccccc1)NO [SAHA, vorinostat, reference compound]
- potency of HDAC1 inhibition in vitro (HDAC1 [14]): < 10000 nM
